The text below walks through data of publication PMC13091788 (NPJ Aging, 2026).

A short description of one data set: PAMPA assay. The class given is in vitro ADME. The following applies: read-out: permeability of reference compounds. The method, then: To determine the passive membrane diffusion rates, Corning Gentest Pre-coated PAMPA Plate System was used. The acceptor plate was prepared by adding 200 μL of 0.1 M phosphate buffer (pH 4.5–8.6) supplemented with 5% DMSO to each well, and then 300 μL of 30 μM compounds in 0.1 M phosphate buffer (pH 4.5–8.6) with 5% DMSO were added to the donor wells. The acceptor plate was then placed on top of the donor plate and incubated at 37 °C for 4 h without agitation. After the incubation, the plates were separated and the solutions from each well of both the acceptor plate and the donor plate were transferred to 96-well plates and mixed with acetonitrile. The final concentrations of compounds in both donor and acceptor wells, as well as the concentrations of the initial donor solutions, were analyzed using liquid chromatography-tandem mass spectrometry (LC-MS/MS). The permeability of the compounds was calculated as described in a previous study. […] Two technical replicates were performed.

Data set [1] has as its system MITOL and Tom20 mRNA in C2C12 cells. The data set can be described thus: qRT-PCR analysis of C2C12 cells. The following applies: C2C12, 5 μM or 10 μM. The class given is cell-based, mouse. The method, then:
(§1) Murine myoblast C2C12 cells were used for various cellular experiments in this study. Two different sources of C2C12 cells were used depending on the experiment: C2C12 cells obtained from RIKEN BRC (RCB0987) were used for gene expression, mtDNA quantification, and mitochondrial morphology analysis; C2C12 cells from ATCC (CRL-1772) were used for OCR analysis. Cells were cultured in Dulbecco’s Modified Eagle Medium (DMEM; Sigma-Aldrich or Nacalai Tesque), supplemented with 10% FBS and 1% penicillin–streptomycin. Cells were maintained in a humidified incubator at 37°C with 5% CO2.
(§2) For cellular experiments, berberine or quinoid-type berberrubine (Q-BRB) was dissolved in DMSO, and berberrubine acetic acid adduct (AcA-BRB) was dissolved in distilled H2O. Each compound was diluted in culture medium to the indicated final concentrations.
Total RNA was extracted from C2C12 cells using an RNA extraction kit (RNeasy Mini Kit, Qiagen). After washing with PBS, cells were collected by trypsinization and centrifugation at 500 × g for 5 min, and the pellet was lysed according to the manufacturer’s instructions. The extracted RNA was reverse-transcribed into cDNA using a reverse transcription kit (ReverTra Ace, TOYOBO). Quantitative real-time PCR was performed using a qPCR master mix (KAPA SYBR FAST qPCR Master Mix (2X) Kit, KAPABIOSYSTEMS) and a thermal cycler (StepOnePlus, Applied Biosystems). Gene expression levels were normalized to GAPDH. Primer sets used for qRT-PCR are listed in Supplementary Table 1.

The next data set relates to C2C12 cells. The data set can be described thus: Quantification of mitochondrial DNA (mtDNA/nDNA ratio). The class given is cell-based, mouse. The note with it: C2C12, 10 μM. As for the experimental part: as §1
To generate mMITOL-knockout C2C12 cells, CRISPR-Cas9 vectors were constructed. Single-guide RNAs (sgRNAs) targeting the mouse MITOL gene were designed using the online tool CRISPOR (http://crispor.org). The oligonucleotide pair corresponding to the mMITOL guide RNA (gRNA sequence, 5′-[…]-3′) was annealed and ligated into the PX459 vector (48139, Addgene). C2C12 cells were transfected using Lipofectamine 3000 (Thermo Fisher Scientific), and knockout clones were selected by serial dilution.
To assess mitochondrial DNA (mtDNA) content, the mtDNA/nuclear DNA (nDNA) ratio was determined by extracting DNA from C2C12 cells using the NucleoSpin Tissue Kit (Takara Bio), followed by real-time quantitative PCR analysis with specific primer sets for mtDNA (16S rRNA or ND1) and nDNA (Hexokinase 2; HK2) (Supplementary Table 2). Real-time quantitative PCR was performed using TB Green Premix Ex Taq II (Takara Bio) and a Thermal Cycler Dice Real-Time System (Takara Bio). The analysis of mtDNA/nDNA ratios was conducted using the ΔΔCt method as previously described.

The subject of data set [2] is MITOL and mitochondrial proteins in C2C12 myoblasts. The data set is described as follows: Western blot of mitochondrial proteins in C2C12 myoblasts. The class given is cell-based, mouse. The following applies: 48 h. As for the experimental part:
as §1, §2
Proteins in sample buffer were separated by SDS-PAGE and transferred to Immobilon-P PVDF membranes (IPVH00010, Millipore). Blots were probed with the indicated antibodies, and protein bands on the blot were visualized using Chemi-Lumi One L (07880-70, Nacalai Tesque) or Immobilon Western Chemiluminescent HRP Substrate (WBKLS0500, Millipore). Band images were captured using a LuminoGraph I imager (WSE-6100, ATTO). Relative band intensities were quantified using Fiji/ImageJ software. Unprocessed western blot images corresponding to the data presented in the main and supplementary figures are provided in Supplementary Figures 11–16.

Data set [3] in a line: Water solubility, roughly examined. The class given is physicochemical. The following applies: roughly examined. The method, then:
Finally, we compared the water solubility of the three berberrubine forms. The solubility of three compounds, the reddish-black solid (quinoid-type berberrubine), the reddish-brown solid (berberrubine acetic acid salt), and the yellow solid (berberrubine acetic acid adduct), in water was roughly examined. […] On the other hand, the reddish-brown solid dissolved in about 30 mg in 1 mL of water.

A further data set concerns rodents. The note with it: high doses (up to 100 mg/kg/day), intraperitoneal or oral gavage; cited from earlier work.

The structures appear in SMILES notation. Structures can show the parent of a compound that is named as a salt. Some results are limits rather than exact numbers.

`Cc1cc(=O)n(-c2ccccc2)n1C` [antipyrine, reference compound]: the Papp at 4 h in “PAMPA assay” is 24 ×10⁻⁶ cm/s.

Consider `COc1ccc2cc3[n+](cc2c1OC)CCc1cc2c(cc1-3)OCO2` [berberine, reference compound], for which the “mRNA levels of MITOL and Tom20” value in data set [1] is reported as “not observed”. Further, the “mitochondrial abundance (mtDNA 16S rRNA or ND1 / nuclear HK2)” value in the data set with C2C12 cells is listed as “did not induce MITOL expression or increase mitochondrial content”. For the same molecule, the “levels of Tom20, Mfn2, HSP60 and ATP5a proteins” value in data set [2] (C2C12, 5 μM or 10 μM) is reported as “not observed”. Moreover, in data set [2] (C2C12, 10 μM, berberrubine used as quinoid-type form), the “MITOL expression (western blot)” value was “did not increase”.

In data set [3], `COc1ccc2cc3n(cc-2c1=O)CCc1cc2c(cc1-3)OCO2` [berberrubine acetic acid salt] showed a solubility not below 30 mg/mL.

On to `COc1ccc2cc3[n+](cc2c1O)CCc1cc2c(cc1-3)OCO2` [berberrubine chloride], for which, in the data set with rodents, the “hepatic toxicity in rodents” value was “hepatic toxicity” and the “renal toxicity in rodents” value is reported as “renal toxicity”.

`COCCc1ccc(OCC(O)CNC(C)C)cc1` (stereo not shown) [metoprolol, reference compound]: in “PAMPA assay”, the Papp at 4 h turned out to be 3 ×10⁻⁶ cm/s.

For the molecule `O=C(O)c1cc(/N=N/c2ccc(S(=O)(=O)Nc3ccccn3)cc2)ccc1O` [sulfasalazine, reference compound], the Papp at 4 h in “PAMPA assay” worked out at 0.084 ×10⁻⁶ cm/s.
